What follows are compounds tested against T1, PDE4B (Homo sapiens, UniProt Q07343) (assay: PDE4 IMAP Assay). Conditions: catalytic domain of PDE4B, fluorescence polarization.
T1 construct: hexa-histidine (His6) (N); made in house
T1 sequence (Q07343 330-659 limits assumed, species assumed): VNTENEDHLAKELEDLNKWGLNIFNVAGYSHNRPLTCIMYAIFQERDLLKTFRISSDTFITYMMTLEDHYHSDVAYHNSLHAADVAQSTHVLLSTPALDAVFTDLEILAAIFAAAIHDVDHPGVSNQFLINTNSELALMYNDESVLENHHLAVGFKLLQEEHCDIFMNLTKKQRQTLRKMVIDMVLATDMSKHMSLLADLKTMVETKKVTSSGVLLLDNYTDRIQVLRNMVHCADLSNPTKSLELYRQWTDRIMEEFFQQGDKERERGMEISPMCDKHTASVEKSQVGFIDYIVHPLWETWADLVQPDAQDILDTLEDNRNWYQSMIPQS
Type: biochemical
From the text: Compounds may be screened for functional potency in in vitro biochemical assays for their ability to inhibit the activity of phosphodiesterase (PDE) enzymes. A commercial PDE assay, Molecular Device's PDE IMAP assay, was modified and utilized to measure the inhibitory activity of compounds on PDE isoforms. The IMAP technology is based on the high affinity binding of phosphate by immobilized metal (MIII) coordination complexes on nanoparticles. This IMAP “binding reagent” complexes with phosphate groups on the nucleotide monophosphates generated in the reaction. Such binding causes a change in the rate of the molecular motion of the nucleotide, and results in an increase in the fluorescence polarization value observed for the fluorescent label attached to the substrate. PDE inhibitors prevent the generation of nucleotide monophosphates and the subsequent increase in polarization value observed for the fluorescent label attached to the substrate. The catalytic domain of PDE4B was fused to an amino-terminus hex-histadine affinity tag and purified. PDE4B enzyme was incubated with compounds for 10 minutes. Fluorescently labeled cyclic AMP substrates were then added to the PDE enzyme mix and incubated for 2 hours at room temperature. IMAP binding reagent was then added to the enzyme mix, incubated for 10-30 minutes and fluorescent polarization of the fluorescently labeled substrate was read either with the Perkin Elmer Viewlux or Molecular Devices Acquest or Analyst. Roflumilast and Rolipram are the positive controls used in the assay.
`COc1ccc(C2=NN(C(=O)CCCC(=O)O)C(c3cccs3)C2)cc1OC` (stereo not drawn) [Example 1, 5-(3-(3,4-dimethoxyphenyl)-5-(thiophen-2-yl)-4,5-dihydro-1H-pyrazol-1-yl)-5-oxopentanoic acid] was tested, and the inhibition at 10 µM was under 50%.
`COc1ccc(C2=NN(S(C)(=O)=O)C(c3cccs3)C2)cc1OC` (stereo not drawn) [Example 2, 3-(3,4-dimethoxyphenyl)-1-(methylsulfonyl)-5-(thiophen-2-yl)-4,5-dihydro-1H-pyrazole] gave an inhibition at 10 µM of under 50%.
With `COc1ccc(C2=NN(S(C)(=O)=O)C(c3c(F)cccc3Cl)C2)cc1OC` (stereo not drawn) [Example 3, 5-(2-chloro-6-fluorophenyl)-3-(3,4-dimethoxyphenyl)-1-(methylsulfonyl)-4,5-dihydro-1H-pyrazole] the inhibition at 10 µM was under 50%.
Compound `COc1cccc(C2CC(c3ccc(OC)c(OC)c3)=NN2S(C)(=O)=O)c1` (stereo not drawn) [Example 4, 3-(3,4-dimethoxyphenyl)-5-(3-methoxyphenyl)-1-(methylsulfonyl)-4,5-dihydro-1H-pyrazole] has an inhibition at 10 µM of under 50%.
`COc1ccc(C2=NN(C(=O)CCC(=O)O)C(c3cc4cccc(C)c4nc3Cl)C2)cc1OC` (stereo not drawn) [Example 5, 4-(5-(2-chloro-8-methylquinolin-3-yl)-3-(3,4-dimethoxyphenyl)-4,5-dihydro-1H-pyrazol-1-yl)-4-oxobutanoic acid] gave an inhibition at 10 µM of under 50%.
`COc1ccc2nc(Cl)c(C3CC(c4ccc(OC)c(OC)c4)=NN3C(=O)c3ccccc3Cl)cc2c1` (stereo not drawn) [Example 6, (5-(2-chloro-6-methoxyquinolin-3-yl)-3-(3,4-dimethoxyphenyl)-4,5-dihydro-1H-pyrazol-1-yl)(2-chlorophenyl)methanone] showed an inhibition at 10 µM of under 50%.
In the case of `COc1ccc2nc(Cl)c(C3CC(c4ccc(OC)c(OC)c4)=NN3C(=O)c3ccccc3)cc2c1` (stereo not drawn) [Example 7, (5-(2-chloro-6-methoxyquinolin-3-yl)-3-(3,4-dimethoxyphenyl)-4,5-dihydro-1H-pyrazol-1-yl)(phenyl)methanone], the inhibition at 10 µM is reported as under 50%.
Compound `CCC(=O)N1N=C(c2ccc(OC)c(OC)c2)CC1c1cc2cc(OC)ccc2nc1Cl` (stereo not drawn) [Example 8, 1-(5-(2-chloro-6-methoxyquinolin-3-yl)-3-(3,4-dimethoxyphenyl)-4,5-dihydro-1H-pyrazol-1-yl)propan-1-one] has an inhibition at 10 µM of under 50%.
Compound `COc1ccc2nc(Cl)c(C3CC(c4ccc(OC)c(OC)c4)=NN3C(=O)c3ccco3)cc2c1` (stereo not drawn) [Example 9, (5-(2-chloro-6-methoxyquinolin-3-yl)-3-(3,4-dimethoxyphenyl)-4,5-dihydro-1H-pyrazol-1-yl)(furan-2-yl)methanone] has an inhibition at 10 µM of under 50%.
Compound `COc1ccc2cc(C3CC(c4ccc(OC)c(OC)c4)=NN3C(=O)c3ccco3)c(Cl)nc2c1` (stereo not drawn) [Example 10, (5-(2-chloro-7-methoxyquinolin-3-yl)-3-(3,4-dimethoxyphenyl)-4,5-dihydro-1H-pyrazol-1-yl)(furan-2-yl)methanone] has an inhibition at 10 µM of under 50%.
`COc1ccc(C2=NN(S(C)(=O)=O)C(c3cccc(OC)c3OC)C2)cc1OC` (stereo not drawn) [Example 11, 5-(2,3-dimethoxyphenyl)-3-(3,4-dimethoxyphenyl)-1-(methylsulfonyl)-4,5-dihydro-1H-pyrazole] showed an inhibition at 10 µM of under 50%.
`CCc1ccc(C2CC(c3ccc(OC)c(OC)c3)=NN2S(C)(=O)=O)cc1` (stereo not drawn) [Example 12, 3-(3,4-dimethoxyphenyl)-5-(4-ethylphenyl)-1-(methylsulfonyl)-4,5-dihydro-1H-pyrazole] showed an inhibition at 10 µM of under 50%.
Compound `COc1ccc(C2=NN(S(C)(=O)=O)C(c3ccc(C)cc3)C2)cc1OC` (stereo not drawn) [Example 13, 3-(3,4-dimethoxyphenyl)-1-(methylsulfonyl)-5-p-tolyl-4,5-dihydro-1H-pyrazole] has an inhibition at 10 µM of under 50%.
In the case of `COc1ccc(C2CC(c3ccc(OC)c(OC)c3)=NN2S(C)(=O)=O)cc1` (stereo not drawn) [Example 14, 3-(3,4-dimethoxyphenyl)-5-(4-methoxyphenyl)-1-(methylsulfonyl)-4,5-dihydro-1H-pyrazole], the inhibition at 10 µM is reported as under 50%.
`COc1ccc(C2=NN(S(C)(=O)=O)C(c3ccccc3Cl)C2)cc1OC` (stereo not drawn) [Example 15, 5-(2-chlorophenyl)-3-(3,4-dimethoxyphenyl)-1-(methylsulfonyl)-4,5-dihydro-1H-pyrazole] showed an inhibition at 10 µM of under 50%.
`COc1ccc2cc(C3CC(c4ccc(OC)c(OC)c4)=NN3C(=O)c3ccccc3Cl)c(Cl)nc2c1` (stereo not drawn) [Example 16, (5-(2-chloro-7-methoxyquinolin-3-yl)-3-(3,4-dimethoxyphenyl)-4,5-dihydro-1H-pyrazol-1-yl)(2-chlorophenyl)methanone] showed an inhibition at 10 µM of under 50%.
Work on `COc1ccc2cc(C3CC(c4ccc(OC)c(OC)c4)=NN3C(=O)CCCC(=O)O)c(Cl)nc2c1` (stereo not drawn) [Example 17, 5-(5-(2-chloro-7-methoxyquinolin-3-yl)-3-(3,4-dimethoxyphenyl)-4,5-dihydro-1H-pyrazol-1-yl)-5-oxopentanoic acid] yielded an inhibition at 10 µM of under 50%.
For `CCc1ccc(C2CC(c3ccc(OC)c(OC)c3)=NN2C(=O)CCCC(=O)O)cc1` (stereo not drawn) [Example 18, 5-(3-(3,4-dimethoxyphenyl)-5-(4-ethylphenyl)-4,5-dihydro-1H-pyrazol-1-yl)-5-oxopentanoic acid], the inhibition at 10 µM was under 50%.
Work on `CCc1ccc(C2CC(c3ccc(OC)c(OC)c3)=NN2C(=O)CCC(=O)O)cc1` (stereo not drawn) [Example 19, 4-(3-(3,4-dimethoxyphenyl)-5-(4-ethylphenyl)-4,5-dihydro-1H-pyrazol-1-yl)-4-oxobutanoic acid] yielded an inhibition at 10 µM of under 50%.
Work on `CCC(=O)N1N=C(c2ccc(OC)c(OC)c2)CC1c1ccc(CC)cc1` (stereo not drawn) [Example 20, 1-(3-(3,4-dimethoxyphenyl)-5-(4-ethylphenyl)-4,5-dihydro-1H-pyrazol-1-yl)propan-1-one] yielded an inhibition at 10 µM of under 50%.
Compound `CCc1ccc(C2CC(c3ccc(OC)c(OC)c3)=NN2C(C)=O)cc1` (stereo not drawn) [Example 21, 1-(3-(3,4-dimethoxyphenyl)-5-(4-ethylphenyl)-4,5-dihydro-1H-pyrazol-1-yl)ethanone] has an inhibition at 10 µM of under 50%.
`COc1ccc2cc(C3CC(c4ccc(OC)c(OC)c4)=NN3C(=O)CCC(=O)O)c(Cl)nc2c1` (stereo not drawn) [Example 22, 4-(5-(2-chloro-7-methoxyquinolin-3-yl)-3-(3,4-dimethoxyphenyl)-4,5-dihydro-1H-pyrazol-1-yl)-4-oxobutanoic acid] showed an inhibition at 10 µM of under 50%.
In the case of `COc1ccc2cc(C3CC(c4ccc(OC)c(OC)c4)=NN3C(C)=O)c(Cl)nc2c1` (stereo not drawn) [Example 23, 1-(5-(2-chloro-7-methoxyquinolin-3-yl)-3-(3,4-dimethoxyphenyl)-4,5-dihydro-1H-pyrazol-1-yl)ethanone], the inhibition at 10 µM is reported as under 50%.
In the case of `COc1ccc(C2=NN(S(=O)(=O)c3ccc(C)cc3)C(c3cn(-c4ccccc4)nc3-c3ccccc3)C2)cc1OC` (stereo not drawn) [Example 24, 4-(3-(3,4-dimethoxyphenyl)-1-tosyl-4,5-dihydro-1H-pyrazol-5-yl)-1,3-diphenyl-1H-pyrazole], the inhibition at 10 µM is reported as under 50%.
In the case of `COc1ccc(C2=NN(S(=O)(=O)c3ccccc3)C(c3cn(-c4ccccc4)nc3-c3ccccc3)C2)cc1OC` (stereo not drawn) [Example 25, 4-(3-(3,4-dimethoxyphenyl)-1-(phenylsulfonyl)-4,5-dihydro-1H-pyrazol-5-yl)-1,3-diphenyl-1H-pyrazole], the inhibition at 10 µM is reported as under 50%.
For `COc1ccc(C2=NN(C(=O)c3ccccc3Cl)C(c3cn(-c4ccccc4)nc3-c3ccccc3)C2)cc1OC` (stereo not drawn) [Example 26, (2-chlorophenyl)(3-(3,4-dimethoxyphenyl)-5-(1,3-diphenyl-1H-pyrazol-4-yl)-4,5-dihydro-1H-pyrazol-1-yl)methanone], the inhibition at 10 µM was under 50%.
In the case of `COc1ccc(C2=NN(C(=O)CCC(=O)O)C(c3cc4ccccc4nc3Cl)C2)cc1OC` (stereo not drawn) [Example 27, 4-(5-(2-chloroquinolin-3-yl)-3-(3,4-dimethoxyphenyl)-4,5-dihydro-1H-pyrazol-1-yl)-4-oxobutanoic acid], the inhibition at 10 µM is reported as under 50%.
`COc1ccc(C2=NN(C(C)=O)C(c3cc4ccccc4nc3Cl)C2)cc1OC` (stereo not drawn) [Example 28, 1-(5-(2-chloroquinolin-3-yl)-3-(3,4-dimethoxyphenyl)-4,5-dihydro-1H-pyrazol-1-yl)ethanone] gave an inhibition at 10 µM of under 50%.
For `COc1ccc(OC)c(C2CC(c3ccc(OC)c(OC)c3)=NN2C(=O)c2ccccc2Cl)c1` (stereo not drawn) [Example 29, (2-chlorophenyl)(5-(2,5-dimethoxyphenyl)-3-(3,4-dimethoxyphenyl)-4,5-dihydro-1H-pyrazol-1-yl)methanone], the inhibition at 10 µM was under 50%.
`COc1ccc(C2=NN(C(=O)c3ccccc3Cl)C(c3cccc(OC)c3OC)C2)cc1OC` (stereo not drawn) [Example 30, (2-chlorophenyl)(5-(2,3-dimethoxyphenyl)-3-(3,4-dimethoxyphenyl)-4,5-dihydro-1H-pyrazol-1-yl)methanone] showed an inhibition at 10 µM of under 50%.
With `COc1ccc(C2=NN(C(=O)c3ccccc3Cl)C(c3ccc(C)cc3)C2)cc1OC` (stereo not drawn) [Example 32, (2-chlorophenyl)(3-(3,4-dimethoxyphenyl)-5-p-tolyl-4,5-dihydro-1H-pyrazol-1-yl)methanone] the inhibition at 10 µM was under 50%.
Work on `COc1ccc(C2CC(c3ccc(OC)c(OC)c3)=NN2C(=O)c2ccccc2Cl)cc1` (stereo not drawn) [Example 33, (2-chlorophenyl)(3-(3,4-dimethoxyphenyl)-5-(4-methoxyphenyl)-4,5-dihydro-1H-pyrazol-1-yl)methanone] yielded an inhibition at 10 µM of at least 50%.
Work on `COc1ccc(C2=NN(C(=O)c3ccccc3Cl)C(c3ccccc3F)C2)cc1OC` (stereo not drawn) [Example 34, (2-chlorophenyl)(3-(3,4-dimethoxyphenyl)-5-(2-fluorophenyl)-4,5-dihydro-1H-pyrazol-1-yl)methanone] yielded an inhibition at 10 µM of at least 50%.

Reference: patent US20100105729A1, “ARYL-SUBSTITUTED HETEROCYCLIC PDE4 INHIBITORS AS ANTI-INFLAMMATORY AGENTS” (KALYPSYS, INC., priority 2006, published 2010)
